Patent publication EP0434364A2, “Benzodiazepine analogs for treating panic syndrome and for directly inducing analgesia” (MERCK & CO. INC., priority 1989, dated 1991)
Where two headings read alike, the source gives them in different places. Ends that are not written are not given here.

What was measured:
[1] = system: Sprague Dawley rats; assay: Exploratory/locomotor activity in automated activity cages (novel environment); assay type: in vivo
Procedure: B. The effects of CCK-8 and compound A on the exploratory behavior of the rat were examined in automated activity cages and by direct observation. It is known that exogenous CCK-8 decreases exploratory behavior in rats in a novel environment by accelerating the process of habituation. [See Crawley, Pharm. Biochem & Behav. 20, 23-27 (1984).]
Expt 1. Male Sprague Dawley rats were injected ([…].) with CCK-8 and immediately placed in automated activity cages. Activity was measured for 30 minutes past injection.
Expt 2. Male SD rats were injected (s.c.) with the CCK antagonist compound A (0.0001-10mg/kg) and immediately placed in the automated activity cages. […] As the anxiolytic drug chlordiazepoxide also increases spontaneous locomotor activity in rats in a novel environment [(McElroy et al. Psychopharm. 85: 224-226 (1985)] these findings are consistent with an anxiolytic action of Compound A useful in the treatment of panic disorder.

[2] = system: rats; assay: Exploration in a novel environment by direct observation (perspex cage); assay type: in vivo; conditions: 0.1 mg/kg, 15 minute period 15 minutes after treatment
Procedure: Expt 3. In order to assess further the effect of Compound A on exploration in a novel environment, the motoric hehaviors of rats placed in a perspex cage was recorded by direct observation for a 15 minute period 15 minutes after treatment with Compound A.
Experimenters (unaware of the treatments the animals had received) recorded the frequency and duration of rearing, sniffing, grooming and cage crossing using a keypad interfaced to a BBC microcomputer.

[3] = system: DBA2 mice; assay: Black/white exploration test (animal model of anxiety); assay type: in vivo; conditions: for difference in time spent in the black and white side / active dose range / preference for rearing in the black side: mice; for active dose range: black/white exploration test
From the text: The black/white exploration test [Crawley et al. Pharmacology, Biochemistry and Behav. 13, 167 (1980)] is a simple animal model of anxiety. Rodents placed in a two compartment box which consists of a brightly lit, white painted side and a dimly lit, black painted side, display a marked preference for the black side of the apparatus. This behavior is caused by the aversive properties of the brightly lit, white painted section. Classical anxiolytic drugs [such as diazepam, see Crawley, supra] and novel anxiolytic drugs [such as 5HT₃ antagonists, see Jones et al. Br. J. Pharm. 93, 985 (1988)] decrease the preference of the animal for the black dimly lit side of the apparatus.
A. Naive male DBA2 mice (25-30) were housed on a reversed light/dark cycle and tested during the dark phase of the cycle under dim red light. The apparatus consisted of an open topped box (40cm long X 27 cm wide X 27 cm high) divided into a small area (2/5) and a large area (3/5) by a partition that extended 20 cm above the walls. There was a 7.5 X 7.5 cm opening in the partition at floor level. The small compartment was painted black and the large compartment white. The floor of each compartment was marked into 9 cm squares. The white compartment was illuminated by a 100 W tungsten bulb 17 cm above the box and the black compartment by a similarly placed 60 W red bulb.
Animals that had been injected with drug or vehicle were placed individually into the centre of the white area and their behavior observed during a 5 minute period by remote video recording. Four behavioral parameters were recorded every minute: the number of exploratory rears in the white and black sections, the number of line crossings in the black and white sections, the number of transitions between the two sections and the time spent in the black and white sections. Animals were tested in treatment groups of 8-10 and vehicle controls were run on each test day. Data were analysed by ANOVA and Dunnetts test.

[4] = biological target: T1, CCK Receptor (Pancreas) (Rattus norvegicus, UniProt P30551); assay: CCK Receptor Binding (Pancreas), inhibition of 125I-CCK-33 binding; design: species or system Sprague-Dawley rats
T1 construct: The whole pancreas was dissected free of fat tissue and was homogenized; from tissue; host or cells: rat whole pancreas membranes
T1 sequence (P30551 1-444): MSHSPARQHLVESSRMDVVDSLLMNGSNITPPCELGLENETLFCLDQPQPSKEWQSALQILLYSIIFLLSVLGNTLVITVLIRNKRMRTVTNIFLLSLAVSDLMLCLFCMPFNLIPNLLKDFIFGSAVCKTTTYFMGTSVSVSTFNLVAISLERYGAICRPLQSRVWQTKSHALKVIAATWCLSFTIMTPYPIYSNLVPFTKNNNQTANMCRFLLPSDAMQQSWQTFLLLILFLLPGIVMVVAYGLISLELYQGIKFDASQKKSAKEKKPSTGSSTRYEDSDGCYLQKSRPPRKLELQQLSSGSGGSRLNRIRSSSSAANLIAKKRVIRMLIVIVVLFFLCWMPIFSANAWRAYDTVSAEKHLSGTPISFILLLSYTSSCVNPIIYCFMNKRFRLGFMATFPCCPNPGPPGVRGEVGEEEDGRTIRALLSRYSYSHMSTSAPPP
Procedure: CCK-33 was radiolabeled with ¹²⁵I-Bolton Hunter reagent (2000 Ci/mmole) as described by Sankara et al. (J. Biol. Chem. 254: 9349-9351, 1979). Receptor binding was performed according to Innis and Snyder (Proc. Natl. Acad. Sci. 77, 6917-6921, 1980) with the minor modification of adding the additional protease inhibitors, phenylmethane sulfonyl fluoride and o-phenanthroline.
Male Sprague-Dawley rats (200-350g) were sacrificed by decapitation. The whole pancreas was dissected free of fat tissue and was homogenized in 20 volumes of ice-cold 50 mM Tris HCI (pH 7.7 at 25°C) with a Brinkmann Polytron PT 10. The homogenates were centrifuged at 48,000 g for 10 min. Pellets were resuspended in Tris Buffer, centrifuged as above and resuspended in 200 volumes of binding assay buffer (50 mM Tris HCI, pH 7.7 at 25°C, 5 mM dithiothrietol, 0.1 mM bacitracin, 1.2 mM phenylmethane sulfonyl fluoride and 0.5 mM o-phenanthroline). […] All assays were run in duplicate or triplicate. The reaction mixtures were incubated at 37°C for 30 minutes and centrifuged in a Beckman Microfuge (4 minutes) immediately after adding 1 ml of ice-cold incubation buffer. The supernatant was aspirated and discarded, pellets were counted with a Beckman gamma 5000. For Scatchard analysis (Ann. N.Y. Acad. Sci. 51: 660, 1949), ¹²⁵I-CCK-33 was progressively diluted with increasing concentrations of CCK-33.

[5] = biological target: T2, Gastrin Receptor (Cavia porcellus, UniProt H0VZC5); assay: Gastrin Receptor Binding in Guinea Pig Gastric Glands (125I-gastrin)
T2 construct: The washed guinea pig gastric glands prepared as above were resuspended; from tissue; host or cells: guinea pig gastric mucosal glands (intact glands after collagenase)
T2 sequence (H0VZC5 1-426): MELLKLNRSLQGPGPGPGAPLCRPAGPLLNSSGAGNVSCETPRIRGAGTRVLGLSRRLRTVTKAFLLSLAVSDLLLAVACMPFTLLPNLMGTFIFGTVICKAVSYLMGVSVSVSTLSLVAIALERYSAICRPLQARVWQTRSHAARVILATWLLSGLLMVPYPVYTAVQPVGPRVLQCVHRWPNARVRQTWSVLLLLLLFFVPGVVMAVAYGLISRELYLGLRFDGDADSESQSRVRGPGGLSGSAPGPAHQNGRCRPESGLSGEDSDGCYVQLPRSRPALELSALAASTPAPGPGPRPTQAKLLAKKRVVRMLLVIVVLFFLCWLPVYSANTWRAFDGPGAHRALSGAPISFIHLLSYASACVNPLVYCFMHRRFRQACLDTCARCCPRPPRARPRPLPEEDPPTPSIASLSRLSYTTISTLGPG

Q: For `CN1C(=O)[C@@H](NC(=O)c2cc3ccccc3[nH]2)N=C(c2ccccc2)c2ccccc21` [Example 16, 3(S)-(-)-1,3-Dihydro-3-(2-indolecarbonylamino)-1-methyl-5-phenyl-2H-1,4-benzodiazepin-2-one], which “habituation and period of exploratory activity” value ([1]; s.c., 0.0001-10mg/kg, F(6,124) = 2.54, p<0.05) is on record?
A: delayed habituation and prolonged the period of exploratory activity

Q: What about the levels of activity ([1]; s.c., 0.1 mg/kg, at 25 minutes, p<0.01) of the same compound?
A: significantly above controls

Q: And the “activity, higher and lower doses” value ([1]; s.c., doses higher and lower than 0.1 mg/kg, at 25 minutes, bell-shaped dose response curve)?
A: no significant effect

Q: And the Sniffing ([2]; P<0.01)?
A: significantly increased

Q: What about the rearing ([2]; P<0.01) of the same compound?
A: significantly increased

Q: What about the cage crossing ([2]; P<0.05) of the same compound?
A: significantly increased

Q: What about the “preference for locomotion (line crossings) in the black side” value ([3]; mice, 0.5, 5.0 and 500 ug/kg) of the same compound?
A: abolished

Q: And the “difference in time spent in the black and white side” value ([3]; 5.0 and 500 ug/kg)?
A: abolished

Q: What about the active dose range [3] of the same compound?
A: 0.05 to 5.0 µg/kg

Q: And the “preference for rearing in the black side” value ([3]; doses of 0.05, 0.5, 5.0 and 500 ug/kg)?
A: significantly decreased

Q: Which IC50 [4] does the source give for `CN1C(=O)C(NC(=O)c2cc3ccccc3[nH]2)N=C(c2ccccn2)c2ccccc21` (racemic) [Example 24, (RS)-N-(2,3-Dihydro-1-methyl-2-oxo-5-(2-pyridyl)-1H-1,4-benzodiazepin-3-yl)-1H-indole-2-carboxamide] here?
A: 0.00037 µM

Q: And the IC50 [5]?
A: 0.16 µM

Q: Which IC50 [4] does the source give for `CN1C(=O)C(NC(=O)Nc2ccc3c(c2)CCC3)N=C(c2ccccc2)c2ccccc21` (racemic) [Example 26, (RS)-N-(2,3-dihydro-1-methyl-2-oxo-5-phenyl-1H-1,4-benzodiazepin-3-yl)-N′-(5-indanyl)urea] here?
A: 0.075 µM

Q: What about the IC50 ([5]; guinea pig gastric glands, 125I-gastrin, 25°C 30 minutes, read-out: IC50(µM) 125I-Gastrin Gastric Glands) of the same compound?
A: 0.0019 µM

Q: For `Cc1cccc(NC(=O)N[C@H]2N=C(c3ccccc3)c3ccccc3N(C)C2=O)c1` [Example 11, (S)-N-(2,3-Dihydro-1-methyl-2-oxo-5-phenyl-1H-1,4-benzodiazepin-3-yl)-N′-(3-methylphonyl)-urea], which IC50 [4] is on record?
A: 0.0041 µM

Q: And the IC50 [5]?
A: 0.092 µM

Q: How did the IC50 [4] turn out when `Cc1cccc(NC(=O)NC2N=C(c3ccccn3)c3ccccc3N(CC(C)C)C2=O)c1` (racemic) [Example 25, (RS)-N-(2,3-Dihydro-1-(2-methylpropyl)-2-oxo-5-(2-pyridyl)-1H-1,4-benzodiazepin-3-yl)-N′-(3-methyl-phenyl)-urea] was run?
A: 0.49 µM

Q: What about the IC50 [5] of the same compound?
A: 0.00067 µM

Q: `CN1C(=O)[C@@H](NC(=O)c2cc3cc(O)ccc3[nH]2)N=C(c2ccccc2)c2ccccc21` [Example 27, 1,3-Dihydro-3-(5-hydroxyindole-2-carbonylamino)-1-methyl-5-phenyl-2H-1,4-benzodiapin-2-one] was tested. Which IC50 [4] did it give?
A: 0.0033 µM

Q: Which IC50 [4] does the source give for `CN1C(=O)C(NC(=O)c2cc3ccccc3[nH]2)N=C(c2ccncc2)c2ccccc21` (racemic) [Example 17, 1,3-Dihydro-3(RS)-(2-indolecarbonylamino)-1-methyl-5-(4-pyridyl)-2H-1,4-benzodiazepin-2-one] here?
A: 0.0068 µM

Q: And the IC50 [5]?
A: 0.66 µM

Q: For “CCK-8 (DYMGWMDF; ends and bridges not checked; UniProt P06307 96-103, looked up) [reference compound]”, which locomotor activity ([1]; i.p., 0.5-16µg/kg, 30 minutes post injection, F(6,87) = 3.21 (p<0.01)) is on record?
A: dose-dependently decreased

Q: How did the IC50 ([4]; rat pancreas membranes, 125I-CCK-33, 37°C 30 minutes, read-out: IC50(µM) 125I-CCK Pancreas) turn out when `Cc1cccc(NC(=O)N[C@@H]2N=C(c3ccccc3)c3ccccc3N(C)C2=O)c1` [Example 5, (R)-N-(2,3-Dihydro-1-methyl-2-oxo-5-phenyl-1H-1,4-benzodiazepin-3-yl)-N′-(3-methylphenyl)-urea] was run?
A: 0.28 µM

Q: What about the active dose range [3] of the same compound?
A: 0.005 to 0.05 µg/kg

Q: And the “difference in time spent in the black and white side” value ([3]; dose of 0.005 ug/kg)?
A: decreased

Q: And the “preference for rearing in the black side” value ([3]; dose of 0.05 ug/kg)?
A: abolished

Q: `CN1C(=O)[C@H](NC(=O)Nc2cc3c(cn2)[nH]c2ccccc23)N=C(c2ccccc2)c2ccccc21` [Example 22] was tested. Which IC50 [4] did it give?
A: 0.0044 µM

Q: What about the IC50 [5] of the same compound?
A: 1.3 µM
